Data as given in publication PMC3479967 (Evidence-based Complementary and Alternative Medicine : eCAM, 2012).

How the values were obtained:
UGT1A7 = biological target: T1, UGT1A7 (Homo sapiens, UniProt Q9HAW7); experiment: Inhibition of recombinant UGT1A7 activity (4-MU glucuronidation)
T1 sequence (Q9HAW7 26-530): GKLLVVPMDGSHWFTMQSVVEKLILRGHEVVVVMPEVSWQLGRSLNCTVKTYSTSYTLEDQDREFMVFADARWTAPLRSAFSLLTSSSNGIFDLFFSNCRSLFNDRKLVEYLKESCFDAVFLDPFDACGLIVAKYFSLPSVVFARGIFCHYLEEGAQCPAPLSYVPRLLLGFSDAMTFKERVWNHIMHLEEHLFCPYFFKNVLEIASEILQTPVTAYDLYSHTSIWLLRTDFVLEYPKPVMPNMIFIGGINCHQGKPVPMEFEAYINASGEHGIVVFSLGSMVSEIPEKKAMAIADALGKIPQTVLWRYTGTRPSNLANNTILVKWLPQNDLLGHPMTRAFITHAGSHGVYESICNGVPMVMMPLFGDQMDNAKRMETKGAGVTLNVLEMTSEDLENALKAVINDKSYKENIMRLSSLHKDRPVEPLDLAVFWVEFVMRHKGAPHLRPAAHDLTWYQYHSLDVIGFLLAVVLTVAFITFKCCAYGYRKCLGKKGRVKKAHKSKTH
Procedure: (§1) A panel of recombinant human UGT supersomes (UGT1A1, UGT1A3, UGT1A4, UGT1A6, UGT1A7, UGT1A8, UGT1A9, UGT1A10, UGT2B4, UGT2B7, UGT2B15, and UGT2B17) expressed in baculovirus-infected insect cells were purchased from BD Gentest Corp. (Woburn, MA, USA).
(§2) 4-MU, a nonselective substrate of UGTs, was used as probe substrate for all UGTs except UGT1A4. Incubations with each individual enzyme were conducted using conditions previously described. There was a 5 min preincubation step at 37°C before the reaction was started by addition of UDPGA. The incubation mixtures were then centrifuged at 20,500 ×g for 15 min to obtain the supernatant. Aliquots (20 μL) were then analyzed by HPLC. The HPLC system (SHIMADZU, Kyoto, Japan) consisted of an SCL-10A system controller, two LC-10AT pumps, a SIL-10A auto injector, and a SPD-10AVP UV detector. Chromatographic separation was achieved using a Kromasil ODS column (4.6 × 150 mm I.D., 5 μm particle size) at a flow rate of 1 mL/min and UV detection at 316 nm. The mobile phase consisted of 10 mM KH2PO4, pH 2.7 (A) and acetonitrile (B). The following gradient was applied at a flow rate of 1 mL/min: 0–4 min 80% A and 20% B, 4.1–8 min 50% A and 50% B, 8.1–12 min, 30% A and 70% B. All experiments were performed in two independent experiments in duplicate.
A typical incubation mixture contained recombinant human UGTs, 5 mM MgCl2, 5 mM UDPGA, 50 μg/mg protein alamethicin, 50 mM Tris-HCl buffer (pH 7.4), and various probe substrates of UGTs in the absence or presence of different concentrations of inhibitors. […] The final concentration of DMSO in the incubation system was 1% (v/v). […] Known UGT inhibitors were used as positive controls: diclofenac for UGT1A1, UGT1A6, UGT1A7, and UGT1A9; androsterone for UGT1A3, UGT2B7, and UGT2B15, phenylbutazone for UGT1A8 and UGT1A10, and hecogenin for UGT1A4, respectively. There is no positive control reported available for UGT2B4 and UGT2B17. The negative controls are the incubation without UDPGA. […] The final concentration of DMSO in the incubation system was 1% (v/v). […] There was a 5 min preincubation step at 37°C before the reaction was started by the addition of UDPGA. Incubation times were 120 min for UGT1A1, UGT1A10, UGT2B4, UGT2B15, and UGT2B17, 75 min for UGT1A3, and 30 min for UGT1A4, UGT1A6, UGT1A7, UGT1A8, and UGT1A9. The reactions were quenched by adding 100 μL acetonitrile and internal standard. The incubation mixtures were then centrifuged at 20,500 ×g for 15 min to obtain the supernatant. An aliquot of the supernatant was used for HPLC analysis as described above. All experiments were performed in two independent experiments in duplicate.
Inhibition data from experiments were graphically represented by Dixon plots. K i values were calculated by nonlinear regression using the equations for competitive inhibition (1), noncompetitive inhibition (2), or mixed inhibition (3), [22] (1) v =VmaxS/Km(1+(I/Ki))+S, (2) v =VmaxS/(Km+S)(1+(I/Ki)), (3) v =VmaxS/Km (1+(I/Ki))+S(1+(I/αKi)), where v is the velocity of the reaction; S and I are the substrate and inhibitor concentrations, respectively; K i is the inhibition constant describing the affinity of the inhibitor for the enzyme; K m is the substrate concentration at half of the maximum velocity (V max) of the reaction; α reflects the effect of inhibitor on the affinity of the enzyme for its substrate. The type of inhibition was determined from the enzyme inhibition models. Goodness of fit to kinetic and inhibition models was assessed from the F statistic, r ^2 values, parameter standard error estimates, and 95% confidence intervals. Kinetic constants are reported as the mean value ± standard error of the parameter estimate.

UGT1A10 = biological target: T2, UGT1A10 (Homo sapiens, UniProt Q9HAW8); experiment: Inhibition of recombinant UGT1A10 activity (4-MU glucuronidation)
T2 sequence (Q9HAW8 26-530): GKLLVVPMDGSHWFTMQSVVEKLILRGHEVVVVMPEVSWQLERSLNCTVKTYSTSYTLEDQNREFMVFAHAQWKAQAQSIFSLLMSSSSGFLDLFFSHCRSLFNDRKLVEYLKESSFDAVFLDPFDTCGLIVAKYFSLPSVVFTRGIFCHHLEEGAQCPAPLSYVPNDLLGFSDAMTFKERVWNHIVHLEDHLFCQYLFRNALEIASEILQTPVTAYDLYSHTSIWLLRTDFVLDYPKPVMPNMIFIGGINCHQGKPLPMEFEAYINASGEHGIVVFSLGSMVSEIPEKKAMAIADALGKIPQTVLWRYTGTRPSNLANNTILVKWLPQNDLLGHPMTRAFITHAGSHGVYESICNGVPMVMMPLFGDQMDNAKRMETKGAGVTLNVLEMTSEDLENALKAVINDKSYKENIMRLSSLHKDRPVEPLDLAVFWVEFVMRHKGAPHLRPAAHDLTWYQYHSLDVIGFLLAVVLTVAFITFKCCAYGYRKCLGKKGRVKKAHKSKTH
Procedure: as §1, §2
A typical incubation mixture contained recombinant human UGTs, 5 mM MgCl2, 5 mM UDPGA, 50 μg/mg protein alamethicin, 50 mM Tris-HCl buffer (pH 7.4), and various probe substrates of UGTs in the absence or presence of different concentrations of inhibitors. […] The final concentration of DMSO in the incubation system was 1% (v/v). […]
Inhibition data from experiments were graphically represented by Dixon plots. K i values were calculated by nonlinear regression using the equations for competitive inhibition (1), noncompetitive inhibition (2), or mixed inhibition (3), [22] […] The type of inhibition was determined from the enzyme inhibition models. Goodness of fit to kinetic and inhibition models was assessed from the F statistic, r ^2 values, parameter standard error estimates, and 95% confidence intervals. […]

Row | IC50 (UGT1A7) [µM] | Ki (UGT1A7) [µM] | Inhibition type against UGT1A7 (UGT1A7; recombinant UGT1A7) | α of mixed inhibition against UGT1A7 (UGT1A7; recombinant UGT1A7, mixed inhibition model) | IC50 (UGT1A10) [µM] | SMILES
1 | 0.3 | 0.7 ± 0.2 | mixed | 2.7 | > 100 | COc1ccc(-c2oc3c(CC=C(C)C)c(O)cc(O)c3c(=O)c2O)cc1 [Icaritin]
2 | > 100 |  |  |  | > 100 | COc1ccc(-c2oc3c(CC=C(C)C)c(O[C@@H]4O[C@H](CO)[C@@H](O)[C@H](O)[C@H]4O)cc(O)c3c(=O)c2O)cc1 [Icariside I]

Row | SMILES | IC50 (UGT1A7) [µM] | Ki (UGT1A7) [µM] | Inhibition type against UGT1A7 (UGT1A7; recombinant UGT1A7) | α of mixed inhibition against UGT1A7 (UGT1A7; recombinant UGT1A7, mixed inhibition model) | IC50 (UGT1A10) [µM]
3 | COc1ccc(-c2oc3c(CC=C(C)C)c(O[C@@H]4O[C@H](CO)[C@@H](O)[C@H](O)[C@H]4O)cc(O)c3c(=O)c2O[C@@H]2O[C@@H](C)[C@H](O)[C@@H](O)[C@H]2O)cc1 [Icariin] | > 100 |  |  |  | > 100
